The text below walks through data of ChEMBL document CHEMBL5113395, “Azetidin-2-one-based small molecules as dual hHDAC6/HDAC8 inhibitors: Investigation of their mechanism of action and impact of dual inhibition profile on cell viability” (Eur J Med Chem, 2022).

What all share (format): toxicity, tissue-based
A short description of data set [1]: Cardiotoxicity in Langendorff-perfused Wistar rat heart assessed as effect on RR time at 0.1 uM by ECG analysis (reference value: 239.5+/-9.2 milliseconds).
Data set [2] in a line: Cardiotoxicity in Langendorff-perfused Wistar rat heart assessed as effect on QT interval time at 10 uM by ECG analysis (reference value: 66.1+/-1.1 milliseconds).
Data set [3] is described as follows: Cardiotoxicity in Langendorff-perfused Wistar rat heart assessed as effect on QTc interval time at 0.1 uM by ECG analysis (reference value: 66.4+/-1.3 milliseconds).

Structures are written as SMILES.

On to `O=C(NO)c1ccc(CNC(=O)N2CCC(N3CC(c4ccccc4)(c4ccccc4)C3=O)CC2)cc1`, for which the Time in data set [1] came out at 233.1 ms; in data set [2] it was 68.5 ms; in data set [3], 68.2 ms.
